The structures appear in SMILES notation. Structures can show the parent of a compound that is named as a salt.

Usually melting point stands for the temperature, or range, at which the solid turns liquid.

For `CS(=O)(=O)c1ccc2c(c1)[C@@H](Oc1ccc(C#N)cc1Cl)[C@H](N1CCC[C@@H](N)C1)C2` (as salt: HCl) [Compound 123, 4-{[(1R,2R)-2-[(3R)-3-aminopiperidin-1-yl]-6-(methylsulfonyl)-2,3-dihydro-1H-inden-1-yl]oxy}-3-chlorobenzonitrile], the melting point was determined as 162 °C. The value for `COc1ccc2c(c1)[C@@H](Oc1ccc3c(c1)CCC(=O)N3)[C@H](N1CCC[C@@H](N)C1)C2` (as salt: HCl) [Compound 131, 6-({(1R,2R)-2-[(3R)-3-aminopiperidin-1-yl]-6-methoxy-2,3-dihydro-1H-inden-1-yl}oxy)-3,4-dihydroquinolin-2(1H)-one] was 145.6 °C; that for `N#Cc1ccc(O[C@@H]2c3ncccc3C[C@H]2N2CCC[C@@H](N)C2)c(Cl)c1` (as salt: HCl) [Compound 138, 4-({(6R,7S)-6-[(3R)-3-aminopiperidin-1-yl]-6,7-dihydro-5H-cyclopenta[b]pyridin-7-yl}oxy)-3-chlorobenzonitrile] was 180 °C. The value for `N[C@@H]1CCCN([C@@H]2Cc3ccccc3[C@H]2Oc2cc3c(cc2Cl)NC(=O)CC3)C1` (as salt: HCl) [Compound 132, 6-({(1R,2R)-2-[(3R)-3-aminopiperidin-1-yl]-2,3-dihydro-1H-inden-1-yl}oxy)-7-chloro-3,4-dihydroquinolin-2(1H)-one] was 183.7 °C; that for `CC(C)(N)C1CN([C@@H]2Cc3ccccc3[C@H]2Oc2ccc(C#N)cc2Cl)C1` (as salt: HCl) [Compound 125, 4-({(1R,2R)-2-[3-(2-aminopropan-2-yl)azetidin-1-yl]-2,3-dihydro-1H-inden-1-yl}oxy)-3-chlorobenzonitrile] was 93 °C; that for `N#Cc1ccc(O[C@@H]2c3cccnc3C[C@H]2N2CCC[C@@H](N)C2)c(Cl)c1` (as salt: HCl) [Compound 137, 4-({(5R,6R)-6-[(3R)-3-aminopiperidin-1-yl]-6,7-dihydro-5H-cyclopenta[b]pyridin-5-yl}oxy)-3-chlorobenzonitrile] was 172 °C.

For the origin of these results see patent US20130131034A1, “DERIVATIVES OF AMINOINDANES, THEIR PREPARATION AND THEIR APPLICATION IN THERAPEUTICS” (SANOFI, priority 2010, published 2013).
